Data taken from patent US5081107A, “Polypeptide compounds” (Imperial Chemical Industries PLC, priority 1988, dated 1992).
Non-standard residues stand in square brackets, D forms with d. Residues, ends and D or L forms follow the SMILES beside them. *: point of attachment. Isonicotinoyl = O=C(c1ccncc1)*; Cbz = O=C(OCc1ccccc1)*

Tests used:
[1] = system: guinea pig pancreatic acini; details: cited from earlier work
[2] = system: bombesin-induced hypothermia; details: rat; cited from earlier work
[3] = system: bombesin-induced stimulation of the secretion of the enzyme amylase; details: rat, in vivo
Procedure: (c) An in vivo test involving the measurement of the antagonism of the bombesin-induced stimulation of the secretion of the enzyme amylase into the pancreatic duct of the rat by a test compound administered orally, sub-cutaneously or intravenously. Bombesin and the test compound can be administered concomitantly or the test compound can be predosed at any convenient interval, for example 30, 60, 90, 120, 150 or 180 minutes, before bombesin is dosed. Amylase was measured by analysis of the conversion of starch into maltose, on incubation of the starch/amylase mixture at 30° C. for 15 minutes, using a spectrophotometric assay as originally described by P. Bernfield in `Methods in Enzymology` Vol. I, p17 (Editors Colowick and Kaplan, Academic Press, New York, 1955). Bombesin (5 micrograms/kg, intravenously) causes a large, but submaximal, increase of amylase secretion within 30 minutes.

[4] = system: mouse Swiss 3T3-fibroblast cells; format: cell-based; details: 3 h
Procedure: (b) An in vitro assay which assesses the ability of a test compound to inhibit the Neuromedin C stimulated mitogenesis of mouse Swiss 3T3-fibroblast cells as determined by the uptake of [^3 H]-thymidine. The test is similar to those described by N. Corps., L. Rees and K. Brown, Biochem. Journal, 1985, 231, 781 and I. Zachary and E. Rozengurt, Proc. Nat. Acad. Sci. USA, 1985, 82, 7616, except that GRP (18-27) (0.2 or 0.4nM) was used to stimulate growth and the test compounds were dissolved in an assay medium containing 0.1% bovine serum albumin and 0.4% dimethylsulphoxide and […]

[5] = biological target: T1, bombesin receptor of mouse Swiss 3T3-fibroblast cells (Mus musculus, UniProt P21729); experiment: Test (a): in vitro binding assay, displacement of [I125]GRP; details: ambient temperature, 1 hour
T1 construct: the bombesin receptor of mouse Swiss 3T3-fibroblast cells; endogenous in cells; host or cells: mouse Swiss 3T3 fibroblast cells
Procedure: (a) An in vitro binding assay which assesses the ability of a test compound to displace radiolabelled gastrin releasing peptide ([I^125 ]GRP) from the bombesin receptor of mouse Swiss 3T3-fibroblast cells. The test is similar to that described by I. Zachary and E. Rozengurt, Proc. Nat. Acad. Sci. USA, 1985, 82, 7616, except that the cells are incubated at ambient temperature for 1 hour;

T1 sequence (P21729 whole entry): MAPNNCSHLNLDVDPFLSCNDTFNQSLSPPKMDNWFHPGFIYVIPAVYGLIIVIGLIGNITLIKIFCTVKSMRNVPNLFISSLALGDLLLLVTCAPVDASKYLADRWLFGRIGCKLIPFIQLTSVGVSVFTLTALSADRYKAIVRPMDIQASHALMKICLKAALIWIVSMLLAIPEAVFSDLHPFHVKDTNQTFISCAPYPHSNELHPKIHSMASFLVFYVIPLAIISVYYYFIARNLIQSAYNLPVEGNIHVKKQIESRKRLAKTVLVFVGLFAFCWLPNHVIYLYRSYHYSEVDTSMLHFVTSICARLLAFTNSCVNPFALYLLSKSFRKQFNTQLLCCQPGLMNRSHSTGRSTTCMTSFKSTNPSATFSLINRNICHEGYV

Row | Compound | inhibition of bombesin-stimulated secretion of amylase [1] | IC50 in test (c) [3] | IC50 [4] | further results
1 | [D--Phe^12, Leu^14 ]bombesin | inhibited | – | – | –
2 | [Tyr^4, D--Phe^12 ]bombesin | inhibited | – | – | –
3 | [D--Glp^7, D--Ala^11, Ala^14 ]bombesin (7-14) | – | – | – | antagonism of bombesin-induced hypothermia [2]: partial antagonist
4 | CNC(=O)[C@H](CC(C)C)NC(=O)[C@H](CCCCNC(=O)OCc1ccccc1)NC(=O)[C@@H](C)NC(=O)[C@@H](NC(=O)[C@H](C)NC(=O)[C@H](Cc1c[nH]c2ccccc12)NC(=O)[C@H](Cc1c[nH]cn1)NC(=O)c1ccncc1)C(C)C [4-Pyridyl-CO--His--Trp--Ala--Val--D-Ala--Lys(Z)--Leu--NHMe] (Isonicotinoyl-HWAV[dA]K(Cbz)L-NHMe) | – | < 0.02 mg/kg | 0.2 nM | –
5 | COC(=O)[C@H](CC(C)C)NC(=O)[C@H](Cc1c[nH]cn1)NC(=O)[C@@H](C)NC(=O)[C@@H](NC(=O)[C@H](C)NC(=O)[C@H](Cc1c[nH]c2ccccc12)NC(=O)[C@H](Cc1c[nH]cn1)NC(=O)c1ccncc1)C(C)C [4-Pyridyl--CO--His--Trp--Ala--Val--D--Ala--His--Leu--OMe] (Isonicotinoyl-HWAV[dA]HL-OMe) | – | < 0.5 mg/kg | 0.7 nM | IC50 [5]: 1.5 nM
6 | [D-Phe^12 ]bombesin | inhibited | – | – | –
